Data set [1] addresses Histone deacetylase 1 (Homo sapiens, UniProt Q13547). To be noted: dose 500.0 nM, time 3.0 hrs.
Data set [2] addresses Histone deacetylase 3 (Homo sapiens, UniProt O15379). Particulars: dose 500.0 nM, time 3.0 hrs.
Data set [3] deals with T1, Protein deacetylase HDAC6 (Homo sapiens) (UniProt Q9UBN7).
T1 sequence (whole entry): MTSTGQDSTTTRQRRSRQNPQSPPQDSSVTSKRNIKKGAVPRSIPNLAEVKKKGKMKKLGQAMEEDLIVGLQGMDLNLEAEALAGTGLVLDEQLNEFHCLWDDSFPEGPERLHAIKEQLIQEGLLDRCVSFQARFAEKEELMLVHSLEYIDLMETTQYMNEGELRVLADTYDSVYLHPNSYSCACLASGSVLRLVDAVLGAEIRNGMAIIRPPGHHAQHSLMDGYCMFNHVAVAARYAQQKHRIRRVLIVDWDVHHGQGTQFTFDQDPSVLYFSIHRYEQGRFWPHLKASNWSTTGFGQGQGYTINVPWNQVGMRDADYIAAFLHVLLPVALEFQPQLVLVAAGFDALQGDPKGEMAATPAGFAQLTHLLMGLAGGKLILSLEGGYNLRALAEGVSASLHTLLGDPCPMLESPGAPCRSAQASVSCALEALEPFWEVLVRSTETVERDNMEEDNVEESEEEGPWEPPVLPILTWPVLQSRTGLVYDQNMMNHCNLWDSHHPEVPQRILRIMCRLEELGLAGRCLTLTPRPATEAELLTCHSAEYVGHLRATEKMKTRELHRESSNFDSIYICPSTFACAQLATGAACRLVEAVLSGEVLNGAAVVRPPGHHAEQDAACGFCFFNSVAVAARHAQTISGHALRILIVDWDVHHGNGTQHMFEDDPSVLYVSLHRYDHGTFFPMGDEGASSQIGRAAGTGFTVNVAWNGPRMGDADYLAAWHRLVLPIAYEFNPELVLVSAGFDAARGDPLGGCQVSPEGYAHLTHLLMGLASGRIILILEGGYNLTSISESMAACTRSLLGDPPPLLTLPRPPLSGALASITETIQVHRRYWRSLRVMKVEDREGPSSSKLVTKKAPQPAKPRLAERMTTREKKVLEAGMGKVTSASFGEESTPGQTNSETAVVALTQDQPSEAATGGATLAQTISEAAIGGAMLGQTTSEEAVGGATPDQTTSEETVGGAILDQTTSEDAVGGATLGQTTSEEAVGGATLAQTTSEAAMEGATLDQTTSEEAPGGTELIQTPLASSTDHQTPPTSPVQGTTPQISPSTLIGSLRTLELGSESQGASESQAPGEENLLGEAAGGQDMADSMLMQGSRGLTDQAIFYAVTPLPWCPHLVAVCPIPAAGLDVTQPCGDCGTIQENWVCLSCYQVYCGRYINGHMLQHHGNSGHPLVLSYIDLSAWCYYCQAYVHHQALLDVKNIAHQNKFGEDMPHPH
Particulars: dose 500.0 nM, time 3.0 hrs.

Data set [4] addresses Histone deacetylase 11 (Homo sapiens, UniProt Q96DB2). Briefly: Inhibition of recombinant HDAC11 (unknown origin) preincubated for 1 hr followed by substrate addition and measured after 2 hrs by fluorescence based micro plate reader analysis.
Data set [5] relates to HCT-116. Put plainly: cells. It is filed as functional, cell-based. To be noted: Homo sapiens, HCT-116, 72 h.
Description: Antiproliferative activity against human HCT-116 cells assessed as inhibition of cell growth incubated for 72 hrs by MTT assay
Data set [6] relates to 4T1. Briefly: cells. Format: functional, cell-based. To be noted: Mus musculus, 4T1, 72 h.
Data set [7] concerns B16-F10. Briefly: cells. Format: functional, cell-based. To be noted: Mus musculus, B16-F10, 72 h.
Description: Antiproliferative activity against mouse B16-F10 cells assessed as inhibition of cell growth incubated for 72 hrs by MTT assay
The subject of data set [8] is SK-OV-3. Put plainly: cells. To be noted: Homo sapiens, SK-OV-3, 72 h. It is filed as functional, cell-based.
Description: Antiproliferative activity against human SK-OV-3 cells assessed as inhibition of cell growth incubated for 72 hrs by MTT assay
The nature of data set [9]: Retention time of compound by HPLC analysis. Format: physicochemical.

Molecules are shown by their SMILES. pIC50: −log10 of the molar value. A value given as a limit tells only on which side of the number the result lay.

Chain of Histone deacetylase 1 (Q13547 whole entry): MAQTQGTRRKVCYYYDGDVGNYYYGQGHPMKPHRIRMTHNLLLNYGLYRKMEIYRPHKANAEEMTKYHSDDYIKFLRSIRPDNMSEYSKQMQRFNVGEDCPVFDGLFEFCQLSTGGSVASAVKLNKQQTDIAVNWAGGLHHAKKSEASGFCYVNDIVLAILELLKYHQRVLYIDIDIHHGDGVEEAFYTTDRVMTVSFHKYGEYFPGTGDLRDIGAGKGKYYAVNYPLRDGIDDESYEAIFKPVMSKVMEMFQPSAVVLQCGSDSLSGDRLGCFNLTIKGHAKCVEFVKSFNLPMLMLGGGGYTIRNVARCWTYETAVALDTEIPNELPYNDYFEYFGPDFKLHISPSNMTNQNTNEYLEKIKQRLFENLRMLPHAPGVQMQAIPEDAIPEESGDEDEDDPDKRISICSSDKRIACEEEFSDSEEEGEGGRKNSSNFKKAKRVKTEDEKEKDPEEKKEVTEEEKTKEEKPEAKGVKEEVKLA
Chain of Histone deacetylase 3 (O15379 whole entry): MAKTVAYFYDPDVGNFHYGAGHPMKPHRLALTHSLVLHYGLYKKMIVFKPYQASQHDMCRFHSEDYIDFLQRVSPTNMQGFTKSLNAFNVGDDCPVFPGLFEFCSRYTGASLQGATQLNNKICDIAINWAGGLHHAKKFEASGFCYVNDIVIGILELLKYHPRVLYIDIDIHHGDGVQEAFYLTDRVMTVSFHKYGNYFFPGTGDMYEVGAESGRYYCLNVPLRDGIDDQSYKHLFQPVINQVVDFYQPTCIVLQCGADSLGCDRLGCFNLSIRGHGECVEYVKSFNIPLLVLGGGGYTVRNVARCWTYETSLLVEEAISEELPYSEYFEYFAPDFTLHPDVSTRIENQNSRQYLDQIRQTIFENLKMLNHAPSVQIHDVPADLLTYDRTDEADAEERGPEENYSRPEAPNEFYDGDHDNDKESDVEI
Chain of Histone deacetylase 11 (Q96DB2 whole entry): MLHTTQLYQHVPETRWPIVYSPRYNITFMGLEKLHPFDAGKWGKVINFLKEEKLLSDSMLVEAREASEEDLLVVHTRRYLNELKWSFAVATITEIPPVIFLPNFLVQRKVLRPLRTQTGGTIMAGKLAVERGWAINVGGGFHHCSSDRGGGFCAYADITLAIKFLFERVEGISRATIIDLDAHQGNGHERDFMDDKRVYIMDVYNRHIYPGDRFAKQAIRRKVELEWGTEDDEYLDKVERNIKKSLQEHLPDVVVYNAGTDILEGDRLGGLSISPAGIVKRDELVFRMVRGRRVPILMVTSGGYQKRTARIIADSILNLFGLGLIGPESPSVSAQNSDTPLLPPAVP

As a reminder, the inhibition is the change of the read-out against control, counted positive when it falls. Read a high inhibition as a response far below the control. Take `CCCN(CCC)NC(=O)c1ccc(Cn2c3ccccc3c3c(-c4cccc(F)c4)nc4ccccc4c32)cc1`: the inhibition in [1] was 27%; in data set [2], 31%; in data set [3], less than 10%.

For the compound `CCCNNC(=O)c1ccc(Cn2c3ccccc3c3c(-c4cc(Cl)ccc4O)nc4ccccc4c32)cc1`, the inhibition worked out at 31% in [1], 47% in [2] and 30% in [3].

As for `CCCNNC(=O)c1ccc(Cn2c3ccccc3c3c(-c4ccc(C(=O)NNCCC)cc4)nc4ccccc4c32)cc1`, the inhibition in data set [1] was less than 10%; in [2] it was 38%; in [3] it was less than 10%.

Regarding `CCNNC(=O)c1ccc(Cn2c3ccccc3c3c(-c4ccccn4)nc4ccccc4c32)cc1`, the values for the inhibition in data set [1], in data set [2] and in data set [3] were 11%, 32% and less than 10%, respectively.

In the case of `CCCN(CCC)NC(=O)c1ccc(Cn2c3ccccc3c3c(-c4ccccn4)nc4ccccc4c32)cc1`, the inhibition in data set [1] was 23%; in data set [2] it was 29%; in data set [3], less than 10%.

Regarding `CCCCCCCNNC(=O)c1ccc(Cn2c3ccccc3c3c(-c4ccccn4)nc4ccccc4c32)cc1`, the inhibition in data set [1] was 22%; in [2] it was 53%; in [3] it was less than 10%.

As for `CCCCCCCCCCNNC(=O)c1ccc(Cn2c3ccccc3c3c(-c4ccccn4)nc4ccccc4c32)cc1`, the inhibition in data set [1], in [2] and in [3] was less than 10% each time.

As to `CC(C)NNC(=O)c1ccc(Cn2c3ccccc3c3c(-c4ccccn4)nc4ccccc4c32)cc1`, the inhibition in data set [1], in data set [2] and in [3] was less than 10% each time.

As for `CCCNNC(=O)c1ccc(Cn2c3ccccc3c3c(-c4ccc(OC)cc4)nc4ccccc4c32)cc1`, the values for the inhibition in data set [1], in [2] and in data set [3] were 29%, 58% and less than 10%, respectively.

`CCCNNC(=O)c1ccc(Cn2c3ccccc3c3c(-c4ccc(C#N)cc4)nc4ccccc4c32)cc1`: the inhibition in data set [1] is less than 10%; in [2], 33%; in [3] it was less than 10%.

On to `CCCCCCCCCNNC(=O)c1ccc(Cn2c3ccccc3c3c(-c4ccccn4)nc4ccccc4c32)cc1`, for which the inhibition in [1] is less than 10%; in data set [2] it was 29%; in data set [3], less than 10%.

Take `CCCCCNNC(=O)c1ccc(Cn2c3ccccc3c3c(-c4ccccn4)nc4ccccc4c32)cc1`: the results for the inhibition in data set [1], in data set [2] and in [3] were 20%, 82% and less than 10%, respectively.

In the case of `CCCCCCCCNNC(=O)c1ccc(Cn2c3ccccc3c3c(-c4ccccn4)nc4ccccc4c32)cc1`, the inhibition is less than 10% in data set [1], 40% in data set [2] and 26% in data set [3].

For `CCCNNC(=O)c1ccc(Cn2c3ccccc3c3c(C4CCN(C(=O)OC(C)(C)C)CC4)nc4ccccc4c32)cc1`, the values for the inhibition in data set [1], in data set [2] and in data set [3] were 22%, 73% and less than 10%, respectively.

Consider `CCCNNC(=O)c1ccc(Cn2c3ccccc3c3c(-c4ccncc4)nc4ccccc4c32)cc1`, for which the inhibition in data set [1] stood at 12%; in data set [2], 65%; in [3], 19%.

With `CCCNNC(=O)c1ccc(Cn2c3ccccc3c3c(-c4cc(OC)ccc4O)nc4ccccc4c32)cc1`, the inhibition in [1] was 27%; in [2], 66%; in [3], 14%.

Take `CC(C)CCNNC(=O)c1ccc(Cn2c3ccccc3c3c(-c4ccccn4)nc4ccccc4c32)cc1`: the inhibition in [1], in data set [2] and in [3] was less than 10% each time.

`CCCN(CCC)NC(=O)c1ccc(Cn2c3ccccc3c3c(C4CCN(C(=O)OC(C)(C)C)CC4)nc4ccccc4c32)cc1`: the inhibition in data set [1], in data set [2] and in data set [3] was less than 10% each time.

Take `CCCNNC(=O)c1ccc(Cn2c3ccccc3c3c(-c4cccc(F)c4)nc4ccccc4c32)cc1`: the inhibition in data set [1] was 20%; in data set [2], 69%; in data set [3], less than 10%.

As for `CCCCNNC(=O)c1ccc(Cn2c3ccccc3c3c(-c4ccccn4)nc4ccccc4c32)cc1`, the inhibition in data set [1] is 35%; in data set [2], 92%; in [3] it was less than 10%.

Regarding `CCCNNC(=O)c1ccc(Cn2c3ccccc3c3c(-c4ccc(O)c(OC)c4)nc4ccccc4c32)cc1`, the inhibition is 20% in [1], 79% in data set [2] and less than 10% in data set [3].

As for `CCCNNC(=O)c1ccc(Cn2c3ccccc3c3c(-c4cccc([N+](=O)[O-])c4)nc4ccccc4c32)cc1`, the inhibition in data set [1] was less than 10%; in data set [2] it was 47%; in [3], 18%.

In the case of `CCCNNC(=O)c1ccc(Cn2c3ccccc3c3c(-c4cccc(Cl)c4)nc4ccccc4c32)cc1`, the inhibition was 25% in [1], 73% in [2] and less than 10% in data set [3].

For the compound `CCCNNC(=O)c1ccc(Cn2c3ccccc3c3c(-c4cn(C)c5ccccc45)nc4ccccc4c32)cc1`, the inhibition was less than 10% in [1], 36% in data set [2] and less than 10% in [3].

As for `CCCNNC(=O)c1ccc(Cn2c3ccccc3c3c(-c4ccccc4)nc4ccccc4c32)cc1`, the values for the inhibition in data set [1], in data set [2] and in data set [3] were less than 10%, 57% and 24%, respectively.

The pIC50 is the negative decadic logarithm of the IC50, by convention in mol/L. With `Nc1ccccc1NC(=O)c1ccc(CNC(=O)OCc2cccnc2)cc1` [ENTINOSTAT], the pIC50 in data set [4] was less than 5.00; in [5], 5.78; in data set [6], 5.16; in data set [7], 4.86; in [8] it was less than 5.00. The inhibition was 88% in data set [1] and 24% in data set [3].

Turning to `C/C=C/CNNC(=O)c1ccc(Cn2c3ccccc3c3c(-c4ccccn4)nc4ccccc4c32)cc1`, the inhibition was 39% in data set [1], 91% in [2] and less than 10% in data set [3].

For `CCCNNC(=O)c1ccc(Cn2c3ccccc3c3c(-c4cccnc4)nc4ccccc4c32)cc1`, the inhibition was 16% in data set [1], 84% in data set [2] and 21% in data set [3].

As for `CC(/C=C/C(=O)NO)=C\[C@@H](C)C(=O)c1ccc(N(C)C)cc1` [TRICHOSTATIN], the Retention_time in data set [9] is reported as 14.7 min.
